# Where two headings read alike, the source gives them in different places.
# Experiments:
# AT1 (h) = AT1 (h) (Homo sapiens (Human), UniProt P30556); assay: ExpresSProfile: angiotensin receptor 1, antagonist radioligand; type: binding; details: Reference Compound
# NTR1 [1] = molecular target: T1, NTR1 (Homo sapiens (Human), UniProt P30989); assay: Radioligand binding assay NTR1 (example part II); details: 0.05 nM 125I-(Tyr3-neurotensin), 60 min at 4° C.; read-out: IC50 [nM] RLB
# Method: (§1) In order to determine the binding affinity of compounds comprising a radiolabel for NTR1, a radioligand binding assay was carried out. A radioligand is a radioactive biochemical substance that is used for diagnosis or for research-oriented study of cellular receptor systems of the body. In […] systems it is often used to quantify the binding of a test molecule to the binding site of radioligand. The higher the affinity of the molecule, the more radioligand is displaced from the binding site. The amount of bound radioligand can be measured by scintillation counting and thereby quantified. This assay is commonly used to calculate binding constants of molecules to receptors.
# The NTR1 radioligand binding assay was performed by Cerep (Celle l'Evescault, France; Catalog reference 0109) according to Vita et al., FEBS Lett., 1993, 317, 139-142. NTR1 was prepared from CHO cells recombinantly expressing the human receptor and incubated with 0.05 nM ^125I-(Tyr^3-neurotensin) and serial dilutions of the test compounds. […] The result for each test compound is expressed as IC50 concentration and provides a measure for the affinity of the test compound for NTR1.
# [2] = Plasma stability assay, human plasma; type: in vitro ADME
# Method: (§2) The plasma stability assay was performed to measure the degradation of compounds of the present invention in plasma. This is an important characteristic of a compound as compounds, with the exception of pro-drugs, which rapidly degrade in plasma generally show poor in vivo efficacy.
# (§3) The plasma was spiked with a 10 mM analyte solution in dimethyl sulfoxide to a final concentration of 10 μM, vortexed, and aliquotted to 50 μl samples. Two aliquots were stored at −20° C. until further treatment. Another two aliquots were incubated using an Eppendorf Thermomixer at 37° C. for 1, 4, and 24 hours. Sample clean-up was performed using a protein precipitation plate (Phenomenex Strata Impact, 64722-1-324-1) and using acetonitrile as precipitation agent. […] An aliquot of 10 μl was diluted with 90 μl 0.1% aqueous trifluoroacetic acid solution. The determination of the analyte in the clean sample solutions was performed on a Thermo TSQ Quantum Ultra triple quadrupole mass spectrometer equipped with a thermo Surveyor HPLC. The chromatographic separation was carried out on a Phenomenex Kinetex XB-C18 HPLC column (50×2 mm, […] particle size) with gradient elution using a mixture of 0.01% trifluoroacetic acid and 0.05% formic acid in water as eluent A and methanol as eluent B (20% B to 100% in 8 min, 400 μl/min, 40° C.). For mass spectrometric detection the selected reaction monitoring (SRM) was used.
# (§4) Quantitation was performed by external matrix calibration using an internal standard.
# [3] = Plasma stability assay, mouse plasma; type: in vitro ADME
# Method: as §2, §3, §4
# NTR1 [4] = molecular target: T1, NTR1; assay: Functional Ca2+ mobilisation assay (example part II); type: cell-based; details: antagonist assay
# Summary of the method: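 HT29 or NTR1-expressing HEK293 cells loaded with Ca5 dye for 1 h at 37 °C in buffer at pH 7.4, and fluorescence recorded for about 90 s after addition. EC50 derived from agonist serial dilutions; IC50 from antagonists pre-incubated 30 min before an EC80 agonist challenge.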
# B2 (h) = B2 (h) (Homo sapiens (Human), UniProt P30411); assay: ExpresSProfile: bradykinin receptor 2, agonist radioligand; type: binding; details: Reference Compound
# D1 (h) = D1 (h) (Homo sapiens (Human), UniProt P21728); assay: ExpresSProfile: dopamine receptor 1, antagonist radioligand; type: binding; details: Reference Compound
# B1R = B1R (Homo sapiens (Human), UniProt P46663); assay: Radioligand binding assay B1R (bradykinin B1 receptor); details: read-out: Inhibition [at 100 nM, %]
# Method: as §1, with “B1R,” for “NTR1,”
# The B1R radioligand binding assay was performed by Cerep (Celle l'Evescault, France; Catalog reference 1189) according to (Jones et al., Eur J Pharmacol, 1999, 374, 423-433). B1R was prepared from CHO cells recombinantly expressing the human receptor and incubated with 0.35 nM [^3H]desArg^10-KD and serial dilutions of the test compounds. After 60 min incubation at 4° C. and washing to remove unbound ligand, bound radioactivity was measured by scintillation counting.
# GABA (non-selective) = assay: ExpresSProfile: GABA, agonist radioligand; type: binding; details: Reference Compound
# HT29 cells = details: 48 h
# CXCR2 (IL-8B) (h) = CXCR2 (IL-8B) (h) (Homo sapiens (Human), UniProt P25025); assay: ExpresSProfile: C-X-C chemokine receptor type 2, agonist radioligand; type: binding; details: Reference Compound
# NTR1 [5] = molecular target: T1, NTR1; assay: Functional Ca2+ mobilisation assay (example part I); type: cell-based
# Text: Ca^2+ ions are usually kept at nanomolar levels in the cytosol of cells, and act in a number of signal transduction pathways as second messengers. […] Changes in calcium ion concentration in standard assay protocols can be readily detected with fluorescent dyes that emit light when changes in intracellular Ca^2+ ion concentration occur. Given the transient nature of these responses, they are often read with instrumentation that has ‘inject and read’ capability.
# HT29 or NTR1-expressing HEK293 cells were trypsinized and seeded into black flat clear-bottom 96-well plates (Corning, Amsterdam, The Netherlands) at […] cells per well. After 24 h incubation at 37° C. and 5% CO2, cells were washed twice with wash buffer (130 mM NaCl, 5 mM KCl, 10 mM Hepes, 2 mM CaCl2, 10 mM Glucose, pH 7.4) and loaded with 100 μl of Ca5 dye (Molecular Devices, Biberach, Germany) for 1 h at 37° C. and 5% CO2. For agonist assays, serial dilutions of agonistic substances were added to the cells loaded with dye and the change of the fluorescent signal was recorded continually for approx. 90 s using a FlexStation II (Molecular Devices, Biberach, Germany). Addition of wash buffer served as a control. Thus, EC50 concentrations for each conjugate were computed and provided a measure for the potency of the substance. For antagonist assays, cells loaded with 100 μl of Ca5-dye were pre-incubated with serial dilutions of antagonistic substances for 30 min, before the EC80-concentration of agonist was added to the cells and the change of the fluorescent signal was recorded continually for approx. 90 s. Thus, IC50 concentrations were computed for each conjugate and provided a measure for the inhibitory activity of the conjugates at the NTR1.
# [6] = in vivo; cited from earlier work
# D2S (h) = D2S (h) (Homo sapiens (Human), UniProt P14416); assay: ExpresSProfile: dopamine receptor 2S, antagonist radioligand; type: binding
# CB1 (h) = CB1 (h) (Homo sapiens (Human), UniProt P21554); assay: ExpresSProfile: cannabinoid receptor 1, agonist radioligand; type: binding; details: Reference Compound
# BZD (central) = assay: ExpresSProfile: benzodiazepine, agonist radioligand; type: binding; details: Reference Compound
# T1 sequence (P30989 whole entry): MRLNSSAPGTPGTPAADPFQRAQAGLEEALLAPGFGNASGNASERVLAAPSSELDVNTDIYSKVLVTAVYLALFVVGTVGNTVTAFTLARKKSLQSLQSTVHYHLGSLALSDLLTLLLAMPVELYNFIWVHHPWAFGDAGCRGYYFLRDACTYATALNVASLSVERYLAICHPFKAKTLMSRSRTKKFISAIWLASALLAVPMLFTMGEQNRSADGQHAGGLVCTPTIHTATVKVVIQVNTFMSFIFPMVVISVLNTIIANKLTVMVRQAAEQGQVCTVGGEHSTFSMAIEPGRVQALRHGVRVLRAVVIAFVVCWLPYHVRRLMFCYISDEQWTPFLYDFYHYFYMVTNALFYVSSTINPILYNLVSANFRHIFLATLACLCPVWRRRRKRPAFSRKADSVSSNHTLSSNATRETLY
# Chain of B1R (P46663 whole entry): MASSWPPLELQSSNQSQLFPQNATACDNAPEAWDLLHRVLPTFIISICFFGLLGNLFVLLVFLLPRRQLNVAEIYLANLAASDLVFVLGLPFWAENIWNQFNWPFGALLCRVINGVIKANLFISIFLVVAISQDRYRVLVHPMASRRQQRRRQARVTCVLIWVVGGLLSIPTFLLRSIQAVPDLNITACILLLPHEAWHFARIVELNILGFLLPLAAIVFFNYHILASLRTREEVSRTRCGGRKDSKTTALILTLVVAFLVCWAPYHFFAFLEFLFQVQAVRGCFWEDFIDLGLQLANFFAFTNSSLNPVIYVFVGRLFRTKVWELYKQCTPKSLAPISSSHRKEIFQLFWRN
# Chain of B2 (h) (P30411 whole entry): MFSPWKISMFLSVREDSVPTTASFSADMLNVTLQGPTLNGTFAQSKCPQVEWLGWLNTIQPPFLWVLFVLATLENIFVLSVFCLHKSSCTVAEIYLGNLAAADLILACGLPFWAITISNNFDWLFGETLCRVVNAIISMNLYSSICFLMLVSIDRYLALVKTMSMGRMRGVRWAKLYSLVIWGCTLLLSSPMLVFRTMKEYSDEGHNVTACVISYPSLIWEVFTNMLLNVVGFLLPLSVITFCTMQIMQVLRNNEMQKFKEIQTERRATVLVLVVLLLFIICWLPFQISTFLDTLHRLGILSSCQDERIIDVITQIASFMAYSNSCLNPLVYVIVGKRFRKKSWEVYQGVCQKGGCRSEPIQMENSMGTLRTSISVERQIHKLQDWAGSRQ
# Chain of D1 (h) (P21728 whole entry): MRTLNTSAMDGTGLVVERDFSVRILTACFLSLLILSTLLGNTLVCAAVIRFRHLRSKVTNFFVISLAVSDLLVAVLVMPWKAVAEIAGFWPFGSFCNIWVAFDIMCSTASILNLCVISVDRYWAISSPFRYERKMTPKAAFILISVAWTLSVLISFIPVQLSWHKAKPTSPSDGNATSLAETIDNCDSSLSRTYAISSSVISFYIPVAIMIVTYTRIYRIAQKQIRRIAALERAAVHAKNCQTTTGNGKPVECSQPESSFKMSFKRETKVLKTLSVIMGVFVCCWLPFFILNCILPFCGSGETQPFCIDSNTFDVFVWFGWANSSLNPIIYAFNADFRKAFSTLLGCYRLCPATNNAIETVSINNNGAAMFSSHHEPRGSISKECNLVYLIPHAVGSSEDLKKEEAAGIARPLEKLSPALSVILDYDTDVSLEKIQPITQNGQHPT
# Chain of CXCR2 (IL-8B) (h) (P25025 whole entry): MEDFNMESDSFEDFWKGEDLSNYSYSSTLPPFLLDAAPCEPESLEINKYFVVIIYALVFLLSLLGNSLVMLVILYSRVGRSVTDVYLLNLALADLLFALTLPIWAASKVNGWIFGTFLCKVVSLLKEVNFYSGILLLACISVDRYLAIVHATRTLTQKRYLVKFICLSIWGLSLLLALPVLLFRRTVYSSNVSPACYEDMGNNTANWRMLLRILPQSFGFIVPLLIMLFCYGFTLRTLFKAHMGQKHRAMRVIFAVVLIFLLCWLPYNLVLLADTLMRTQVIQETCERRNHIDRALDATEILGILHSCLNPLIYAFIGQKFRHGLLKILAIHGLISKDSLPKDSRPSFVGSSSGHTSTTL
# Chain of CB1 (h) (P21554 whole entry): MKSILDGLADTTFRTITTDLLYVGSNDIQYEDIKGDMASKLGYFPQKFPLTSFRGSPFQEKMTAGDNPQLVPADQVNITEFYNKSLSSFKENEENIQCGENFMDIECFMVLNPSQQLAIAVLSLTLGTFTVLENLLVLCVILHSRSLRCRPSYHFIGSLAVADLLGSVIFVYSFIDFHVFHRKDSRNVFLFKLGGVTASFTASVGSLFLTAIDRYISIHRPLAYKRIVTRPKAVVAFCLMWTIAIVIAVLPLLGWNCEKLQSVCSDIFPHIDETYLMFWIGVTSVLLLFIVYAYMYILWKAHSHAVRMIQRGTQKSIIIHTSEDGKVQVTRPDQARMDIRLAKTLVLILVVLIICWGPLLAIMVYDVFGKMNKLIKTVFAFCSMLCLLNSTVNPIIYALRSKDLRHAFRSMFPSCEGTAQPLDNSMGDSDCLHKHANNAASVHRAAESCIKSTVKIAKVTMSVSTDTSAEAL
# Chain of AT1 (h) (P30556 whole entry): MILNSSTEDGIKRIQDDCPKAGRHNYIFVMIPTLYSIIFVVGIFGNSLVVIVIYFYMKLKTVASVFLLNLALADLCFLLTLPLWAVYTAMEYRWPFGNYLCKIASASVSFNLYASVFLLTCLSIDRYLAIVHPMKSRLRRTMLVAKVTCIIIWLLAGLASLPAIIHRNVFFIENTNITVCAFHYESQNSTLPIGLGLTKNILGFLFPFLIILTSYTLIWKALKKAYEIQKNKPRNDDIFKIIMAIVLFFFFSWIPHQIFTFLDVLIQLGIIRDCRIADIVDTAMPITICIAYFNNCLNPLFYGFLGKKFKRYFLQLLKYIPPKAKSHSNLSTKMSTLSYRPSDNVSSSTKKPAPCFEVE
# Chain of D2S (h) (P14416 other isoform, or with tags, fused parts or gaps): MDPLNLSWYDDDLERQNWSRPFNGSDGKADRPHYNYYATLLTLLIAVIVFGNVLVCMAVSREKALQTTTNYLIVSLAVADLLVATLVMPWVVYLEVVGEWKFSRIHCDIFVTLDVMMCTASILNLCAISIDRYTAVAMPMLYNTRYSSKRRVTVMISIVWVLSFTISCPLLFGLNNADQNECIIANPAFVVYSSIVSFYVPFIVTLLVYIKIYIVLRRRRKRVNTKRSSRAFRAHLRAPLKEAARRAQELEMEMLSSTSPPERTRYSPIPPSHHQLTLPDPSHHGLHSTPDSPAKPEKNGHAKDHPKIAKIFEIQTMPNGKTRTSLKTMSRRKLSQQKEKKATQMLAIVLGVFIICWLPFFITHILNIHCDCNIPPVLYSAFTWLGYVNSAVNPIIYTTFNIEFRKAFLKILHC
molecule,measurement,setting,value
CNCC(=O)N[C@@H](CCCN=C(N)N)C(=O)N[C@H](C(=O)N[C@@H](Cc1ccc(O)cc1)C(=O)N[C@H](C(=O)N[C@@H](Cc1cnc[nH]1)C(=O)N1CCC[C@H]1C(=O)N[C@@H](C)C(=O)O)C(C)C)C(C)C [saralasin],nH Ref,AT1 (h),0.6
"COc1cccc(OC)c1-c1cc(C(=O)NC2(C(=O)O)C3CC4CC(C3)CC2C4)nn1-c1ccc(C(=O)N(CCCNC(=O)CN2CCN(CC(=O)O)CCN(CC(=O)O)CCN(CC(=O)O)CC2)CCCN(C)C)cc1C(C)C (stereo not drawn) [(Va), 2-{[1-{4-[(3-DOTA-amino-propyl)-(3-dimethylamino-propyl)-carbamoyl]-2-isopropyl-phenyl}-5-(2,6-dimethoxy-phenyl)-1H-pyrazole-3-carbonyl]-amino}-adamantane-2-carboxylic acid]",IC50,NTR1 [1],3.4 nM
same,stability in human plasma,[2],highly stable
same,"% remaining after 24 h incubation, Human plasma","[2]; 10 μM, 37° C., 24 h",>70%
same,stability in mouse plasma,[3],highly stable
same,"% remaining after 24 h incubation, Mouse plasma","[3]; 10 μM, 37° C., 24 h",>60%
same,IC50,NTR1 [4],12.6 nM
N=C(N)NCCC[C@@H](N)C(=O)N[C@@H](CCCNC(=N)N)C(=O)N1CCC[C@H]1C(=O)N1C[C@H](O)C[C@H]1C(=O)NCC(=O)N[C@@H](Cc1ccccc1)C(=O)N[C@@H](CO)C(=O)N[C@H](Cc1ccccc1)C(=O)N[C@@H](Cc1ccccc1)C(=O)N[C@@H](CCCNC(=N)N)C(=O)O [NPC 567],nH Ref,B2 (h),0.9
CN1CCc2cc(Cl)c(O)cc2[C@@H](c2ccccc2)C1 [SCH 23390],nH Ref,D1 (h),0.9
"COc1cccc(OC)c1-c1cc(C(=O)NC2(C(=O)O)C3CC4CC(C3)CC2C4)nn1-c1ccc(C(=O)N(C)CCCN(C)CCCN(C)C(=O)CCCC(=O)NCCCOCCOCCOCCCNC(=O)CCC(=O)N[C@@H](CCCCNC(=O)CN2CCN(CC(=O)O)CCN(CC(=O)O)CCN(CC(=O)O)CC2)C(=O)NCCCOCCOCCOCCCNC(=O)CCC(=O)N[C@@H](CCCCN)C(=O)N[C@@H](CCCNC(=N)N)C(=O)N2CCC[C@H]2C(=O)N2C[C@H](O)C[C@H]2C(=O)NCC(=O)N[C@@H](CC2CCCCC2)C(=O)N[C@@H](CO)C(=O)N2CCC[C@H]2C(=O)N[C@@H](CC(C)C)C(=O)O)cc1C(C)C (stereo partly drawn) [(26), 1206-Glutar-Ttds-Lys(DOTA)-Ttds-GABA-Lys-Arg-Pro-Hyp-Gly-Cha-Ser-Pro-Leu-OH]",inhibition at 0.1 µM,B1R,20%
"NCCCC(=O)O [GABA, γ-aminobutyric acid, reference compound]",nH Ref,GABA (non-selective),0.8
"CC(=O)O[C@H]1C(=O)[C@@]2(C)[C@H]([C@H](OC(=O)c3ccccc3)[C@]3(O)C[C@H](OC(=O)[C@H](O)[C@@H](NC(=O)c4ccccc4)c4ccccc4)C(C)=C1C3(C)C)[C@]1(OC(C)=O)CO[C@@H]1C[C@@H]2O [Paclitaxel, reference compound]",Concentration [μM] at 20% cytotoxicity,HT29 cells; human,70 µM
IL-8,nH Ref,CXCR2 (IL-8B) (h),1.4
"CC[C@H](C)[C@H](NC(=O)[C@@H](Cc1ccc2ccccc2c1)NC(=O)[C@H](CO)NC(=O)[C@](C)(Cc1ccccc1)NC(=O)CNC(=O)[C@@H]1CCCN1C(=O)[C@@H]1C[C@@H]2CCCC[C@@H]2N1C(=O)[C@H](CCCNC(=N)N)NC(=O)[C@H](CCCN)NC(=O)CCC(=O)NCCCOCCOCCOCCCNC(=O)[C@H](CCCCNC(=O)CN1CCN(CC(=O)O)CCN(CC(=O)O)CCN(CC(=O)O)CC1)NC(=O)CCC(=O)NCCCOCCOCCOCCCNC(=O)CCCC(=O)N(C)CCCN(C)CCCN(C)C(=O)c1ccc(-n2nc(C(=O)NC3(C(=O)O)C4CC5CC(C4)CC3C5)cc2-c2c(OC)cccc2OC)c(C(C)C)c1)C(=O)O (stereo partly drawn) [(27), 1206-Glutar-Ttds-Lys(DOTA)-Ttds-GABA-Orn-Arg-Oic-Pro-Gly-Amf-Ser-nal-Ile-OH]",inhibition at 0.1 µM,B1R,17%
"COc1cccc(OC)c1-c1cc(C(=O)NC2(C(=O)O)C3CC4CC(C3)CC2C4)nn1-c1ccc(C(=O)N(C)CCCN(C)CCCN(C)C(=O)CCCC(=O)NCCCCC(NC(=O)CCC(=O)NCCCOCCOCCOCCCNC(=O)C(CCCCNC(=O)CCC(=O)O[C@@H](C(=O)O[C@H]2C[C@@]3(O)[C@@H](OC(=O)c4ccccc4)[C@@H]4[C@]5(OC(C)=O)CO[C@@H]5C[C@H](O)[C@@]4(C)C(=O)[C@H](OC(C)=O)C(=C2C)C3(C)C)[C@@H](NC(=O)c2ccccc2)c2ccccc2)NC(=O)CCC(=O)NCCCOCCOCCOCCCNC(=O)CCCC(=O)N(C)CCCN(C)CCCN(C)C(=O)c2ccc(-n3nc(C(=O)NC4(C(=O)O)C5CC6CC(C5)CC4C6)cc3-c3c(OC)cccc3OC)c(C(C)C)c2)C(N)=O)cc1C(C)C (stereo partly drawn) [(20), 1206-Glutar-Ttds-Lys(Taxol-Succinyl)-Ttds-(ε-Lys-NH2)-Glutar-1206]",Concentration [μM] at 20% cytotoxicity,"HT29 cells; HT29 cells, LDH in supernatant",18 µM
same,EC50,NTR1 [5],> 50000 nM
same,IC50,NTR1 [5],32 nM
"COc1cccc(OC)c1-c1cc(C(=O)NC2(C(=O)O)C3CC4CC(C3)CC2C4)nn1-c1ccc(C(=O)N(C)CCCN(C)C)cc1C(C)C (stereo not drawn) [SR142948, 2-[(5-(2,6-Dimethoxy-phenyl)-1-{4-[(3-dimethylamino-propyl)-methyl-carbamoyl]-2-isopropyl-phenyl}-1H-pyrazole-3-carbonyl)-amino]-adamantane-2-carboxylic acid]",blood-brain barrier crossing,[6],cross the blood-brain barrier
(+)butaclamol,nH Ref,D2S (h),1.0
CCCCCCC(C)(C)c1ccc([C@@H]2C[C@H](O)CC[C@H]2CCCO)c(O)c1 [CP 55940],nH Ref,CB1 (h),0.8
CN1C(=O)CN=C(c2ccccc2)c2cc(Cl)ccc21 [diazepam],nH Ref,BZD (central),1.1

# Source: patent US10799605B2 (3B PHARMACEUTICALS GMBH, priority 2014, dated 2020)
